These results are taken from patent EP4755886A1 (Chengdu Chipscreen Pharmaceutical Ltd., priority 2023, dated 2025).

Test [1] concerns human large cell lung cancer cell line LU99. The test can be described thus: Efficacy in LU99 xenograft mouse model. It is filed as in vivo, Balb/c nude mice. As to conditions: PO, qd, 28 days. On the procedure:
The human large cell lung cancer cell line LU99 was purchased from Nanjing Cobioer Biosciences Co., Ltd. (CBP61512) and cultured in RPMI-1640 medium (Gibco) containing 10% fetal bovine serum (Gibco); the test substances were prepared into suspensions at concentrations of 0.3 mg/mL, 1 mg/mL, and 5 mg/mL using a 0.5% aqueous MC solution containing 0.2% Tween 80. Reference Example 6 (MRTX1719) was prepared into a 5 mg/mL clear solution using 40% PEG400 normal saline containing 2% DMSO.
LU99 cells in the logarithmic growth phase were digested, collected, and counted, and the cell density was adjusted to 2 × 10^7 cells/mL using a 1:1 serum-free medium and matrigel (Corning). 18-20 g of Balb/c nude mice (Beijing Huafukang Biotechnology Co., Ltd.) were inoculated subcutaneously with 100 µL of cell suspension per mouse. On day 12 after inoculation, animals with a mean tumor volume of 116 mm^3 were randomly grouped, with 7 animals in each group. The test substances were intragastrically administered at 3 mg/kg, 10 mg/kg, and 50 mg/kg once daily, and MRTX1719 was intragastrically administered at 50 mg/kg once daily. A vehicle (2% DMSO + 40% PEG400 + 58% normal saline) was intragastrically administered to the blank group at a dose of 10 mL/kg once daily. Administration was performed for 28 days in total.
After the animals were inoculated with LU99 cells, the tumor volume was measured 2-3 times a week, and the tumor volume was calculated based on length × width^2 × 0.5. On the day when the last administration was completed, except for the mice with tumor regression, which were subjected to discontinuation observation, the remaining mice were euthanized.
In the formula, VTt represents the tumor volume of the treatment group at each measurement, and VT0 represents the tumor volume measured when the treatment group is grouped; VCt represents the tumor volume of the model control group at each measurement, and VC0 represents the tumor volume measured when the model control group is grouped.
Data were analyzed using GraphPad Prism 9.0 software and expressed as Mean ± SEM (standard error). Pairwise comparisons between each administration group and the model control group were performed using one-way analysis of variance (ANOVA). Variance homogeneity was determined using the Brown-Forsythe method, and variance heterogeneity was determined using the Dunnett's T3 method. Table 8. Efficacy evaluation in LU99 xenograft mouse model

The subject of test [2] is gene-editing MTAP-/- human colon cancer cell strain HCT116. The test can be described thus: Efficacy in MTAP-/- HCT116 subcutaneous xenograft mouse model. In kind it is in vivo, Balb/c nude mice. As to conditions: 10 mg/kg, PO, qd, 28 days. The method, then:
The blank group contained 40% PEG400 normal saline with 2% DMSO. […] The test substance was intragastrically administered at 10 mg/kg once daily, and MRTX1719 was intragastrically administered at 50 mg/kg once daily. Model control: The vehicle (2% DMSO + 40% PEG400 + 58% normal saline) was intragastrically administered at a dose of 10 mL/kg once daily. Administration was performed for 28 days in total. […] The mice were euthanized on the day when the last administration was completed. […] In the formula, VTt represents the tumor volume of the treatment group at each measurement, and VT0 represents the tumor volume measured when the treatment group is grouped; VCt represents the tumor volume of the vehicle group at each measurement (same as VTt), and VC0 represents the tumor volume measured when the vehicle group is grouped. Data were analyzed using GraphPad Prism 9.0 software and expressed as Mean ± SEM (standard error). Pairwise comparisons between each administration group and the control group were performed using one-way analysis of variance (ANOVA). Variance homogeneity was determined using the Brown-Forsythe method, and variance heterogeneity was determined using the Dunnett's T3 method. Table 7. Efficacy evaluation in HCT116 subcutaneous xenograft mouse model

Turning to `CN(C(=O)c1cc2c(cc1F)nc(N)c1cnn(C)c12)[C@@H]1COc2cc(C#Cc3cnn(C)c3)ccc21` [Compound 5A, (S)-4-amino-7-fluoro-N,1-dimethyl-N-(6-((1-methyl-1H-pyrazol-4-yl)ethynyl)-2,3-dihydrobenzofuran-3-yl)-1H-pyrazolo[4,3-c]quinoline-8-carboxamide], the TGI turned out to be 81.96% in test [1] (3 mg/kg), 95.20% in test [1] (10 mg/kg), 103.12% in test [1] (50 mg/kg) and 82.25% in test [2]. In addition, the Tumor volume in test [1] (3 mg/kg) stood at 438.73 mm^3; in test [1] (10 mg/kg), 202.05 mm^3; in test [1] (50 mg/kg), 60.72 mm^3; in test [2] it was 378.72 mm^3.
As for `CN(C(=O)c1cc2c3c(c(N)nc2cc1Cl)COC3)[C@@H]1COc2cc(C#Cc3cnn(C4CC4)c3)ccc21` [Compound 43A, (S)-4-amino-7-chloro-N-(6-((1-cyclopropyl-1H-pyrazol-4-yl)ethynyl)-2,3-dihydrobenzofuran-3-yl)-N-methyl-1,3-dihydrofuro[3,4-c]quinoline-8-carboxamide], the TGI in test [1] (3 mg/kg) is listed as 83.27%; in test [1] (10 mg/kg), 94.77%; in test [1] (50 mg/kg) it was 104.92%. The Tumor volume in test [1] (3 mg/kg) was determined as 415.58 mm^3; in test [1] (10 mg/kg) it was 210.31 mm^3; in test [1] (50 mg/kg), 28.13 mm^3.
